Patent US20160002204A1 (Board of Regents, The University of Texas System, priority 2014, published 2016)

What was measured:
[1] = molecular target: T1, GLS1 (purified recombinant human GAC) (Homo sapiens, UniProt O94925); test: GLS1 enzymatic activity assay (dual-coupled, Amplex UltraRed/resorufin); format: biochemical
T1 sequence (O94925 55-598 isoform O94925-3 limits assumed): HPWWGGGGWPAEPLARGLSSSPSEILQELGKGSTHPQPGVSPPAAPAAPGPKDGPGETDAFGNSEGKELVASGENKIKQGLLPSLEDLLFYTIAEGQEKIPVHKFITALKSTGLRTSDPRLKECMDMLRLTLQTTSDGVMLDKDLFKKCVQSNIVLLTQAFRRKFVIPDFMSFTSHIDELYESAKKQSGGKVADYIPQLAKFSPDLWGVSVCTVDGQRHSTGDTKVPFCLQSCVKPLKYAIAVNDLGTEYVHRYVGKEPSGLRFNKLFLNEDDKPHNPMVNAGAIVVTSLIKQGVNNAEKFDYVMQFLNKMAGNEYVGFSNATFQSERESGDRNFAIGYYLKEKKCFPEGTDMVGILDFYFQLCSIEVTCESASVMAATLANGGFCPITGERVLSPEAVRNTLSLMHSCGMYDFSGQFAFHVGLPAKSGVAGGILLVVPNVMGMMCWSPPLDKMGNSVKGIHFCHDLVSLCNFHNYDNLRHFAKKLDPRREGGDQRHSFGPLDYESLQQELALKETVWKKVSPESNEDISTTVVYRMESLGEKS
Method in brief: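 GAC activity measured by coupling glutamate to glutamate oxidase and HRP, generating resorufin from Amplex UltraRed. Enzyme (2 nM) preincubated with 50 mM potassium phosphate 10 min at room temperature, then inhibitor 10 min; 1 mM glutamine substrate, 1% DMSO. Fluorescence 530/590 nm, kinetic or 20-min endpoint; IC50 from four-parameter logistic fit.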

[2] = test system: A549 cells; test: A549 proliferation (viability) assay, Cell Titer Fluor, 72 hours; format: cell-based; settings: Homo sapiens
Method in brief: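 A549 cells in RPMI 1640 with 10% dialyzed FBS were seeded at 1000 cells/well, grown 24 h, then exposed to compound (0.5% DMSO final) for 72 h at 37 °C, 5% CO2. Viability was read by Cell Titer Fluor fluorescence; EC50 from four-parameter logistic fit.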

IC50 [1]	EC50 [2]	SMILES
< 100 nM	< 100 nM	O=C(CC1CCCCC1)Nc1ccn(CCC(F)Cn2cc(C(=O)NCc3ccccn3)nn2)c(=O)c1F (stereo not shown) [Example 267, 1-{4-[4-(2-cyclohexylacetamido)-3-fluoro-2-oxo-1,2-dihydropyridin-1-yl]-2-fluorobutyl}-N-(pyridin-2-ylmethyl)-1H-1,2,3-triazole-4-carboxamide]
< 100 nM	100 to 500 nM	CC(C)(O)c1ccc(CNC(=O)c2cn(CC(F)CCn3ccc(NC(=O)CC4CCCCC4)c(F)c3=O)nn2)cn1 (stereo not shown) [Example 268, 1-{4-[4-(2-cyclohexylacetamido)-3-fluoro-2-oxo-1,2-dihydropyridin-1-yl]-2-fluorobutyl}-N-{[6-(2-hydroxypropan-2-yl)pyridin-3-yl]methyl}-1H-1,2,3-triazole-4-carboxamide]
< 100 nM	< 100 nM	O=C(CN1CCCCC1)Nc1ccn(CCC(F)Cn2cc(C(=O)NCc3cccc(OC(F)(F)F)c3)nn2)c(=O)c1 (stereo not shown) [Example 269, 1-(2-fluoro-4-{2-oxo-4-[2-(piperidin-1-yl)acetamido]-1,2-dihydropyridin-1-yl}butyl)-N-{[3-(trifluoromethoxy)phenyl]methyl}-1H-1,2,3-triazole-4-carboxamide]
100 to 500 nM	500 to 5000 nM	O=C(CN1CCCC1)Nc1ccn(CCC(F)Cn2cc(C(=O)NCc3cccc(OC(F)(F)F)c3)nn2)c(=O)c1 (stereo not shown) [Example 270, 1-(2-fluoro-4-{2-oxo-4-[2-(pyrrolidin-1-yl)acetamido]-1,2-dihydropyridin-1-yl}butyl)-N-{[3-(trifluoromethoxy)phenyl]methyl}-1H-1,2,3-triazole-4-carboxamide]
< 100 nM	< 100 nM	CC(C)(C)OC(=O)N1CCN(CC(=O)Nc2ccn(CCC(F)Cn3cc(C(=O)NCc4cccc(OC(F)(F)F)c4)nn3)c(=O)c2)CC1 (stereo not shown) [Example 271, tert-butyl 4-{[(1-{3-fluoro-4-[4-({[3-(trifluoromethoxy)phenyl]methyl}carbamoyl)-1H-1,2,3-triazol-1-yl]butyl}-2-oxo-1,2-dihydropyridin-4-yl)carbamoyl]methyl}piperazine-1-carboxylate]
< 100 nM	100 to 500 nM	COCC1CCN(CC(=O)Nc2ccn(CCC(F)Cn3cc(C(=O)NCc4cccc(OC(F)(F)F)c4)nn3)c(=O)c2)CC1 (stereo not shown) [Example 272, 1-[2-fluoro-4-(4-{2-[4-(methoxymethyl)piperidin-1-yl]acetamido}-2-oxo-1,2-dihydropyridin-1-yl)butyl]-N-{[3-(trifluoromethoxy)phenyl]methyl}-1H-1,2,3-triazole-4-carboxamide]
< 100 nM	500 to 5000 nM	COC(=O)C1CCN(CC(=O)Nc2ccn(CCC(F)Cn3cc(C(=O)NCc4cccc(OC(F)(F)F)c4)nn3)c(=O)c2)CC1 (stereo not shown) [Example 273, methyl 1-{[(1-{3-fluoro-4-[4-({[3-(trifluoromethoxy)phenyl]methyl}carbamoyl)-1H-1,2,3-triazol-1-yl]butyl}-2-oxo-1,2-dihydropyridin-4-yl)carbamoyl]methyl}piperidine-4-carboxylate]
< 100 nM	< 100 nM	O=C(CN1CCCC(F)(F)C1)Nc1ccn(CCC(F)Cn2cc(C(=O)NCc3cccc(OC(F)(F)F)c3)nn2)c(=O)c1 (stereo not shown) [Example 274, 1-(4-{4-[2-(3,3-difluoropiperidin-1-yl)acetamido]-2-oxo-1,2-dihydropyridin-1-yl}-2-fluorobutyl)-N-{[3-(trifluoromethoxy)phenyl]methyl}-1H-1,2,3-triazole-4-carboxamide]
< 100 nM	< 100 nM	O=C(CN1CCCC(F)C1)Nc1ccn(CCC(F)Cn2cc(C(=O)NCc3cccc(OC(F)(F)F)c3)nn2)c(=O)c1 (stereo not shown) [Example 275, 1-(2-fluoro-4-{4-[2-(3-fluoropiperidin-1-yl)acetamido]-2-oxo-1,2-dihydropyridin-1-yl}butyl)-N-{[3-(trifluoromethoxy)phenyl]methyl}-1H-1,2,3-triazole-4-carboxamide]
< 100 nM	100 to 500 nM	CC1(C)CN(CC(=O)Nc2ccn(CCC(F)Cn3cc(C(=O)NCc4cccc(OC(F)(F)F)c4)nn3)c(=O)c2)CCO1 (stereo not shown) [Example 276, 1-(4-{4-[2-(2,2-dimethylmorpholin-4-yl)acetamido]-2-oxo-1,2-dihydropyridin-1-yl}-2-fluorobutyl)-N-{[3-(trifluoromethoxy)phenyl]methyl}-1H-1,2,3-triazole-4-carboxamide]
< 100 nM	100 to 500 nM	CC(C)(C)OC(=O)N1CC(CC(=O)Nc2ccn(CCC(F)Cn3cc(C(=O)NCc4cccc(OC(F)(F)F)c4)nn3)c(=O)c2)C1 (stereo not shown) [Example 277, tert-butyl 3-{[(1-{3-fluoro-4-[4-({[3-(trifluoromethoxy)phenyl]methyl}carbamoyl)-1H-1,2,3-triazol-1-yl]butyl}-2-oxo-1,2-dihydropyridin-4-yl)carbamoyl]methyl}azetidine-1-carboxylate]
< 100 nM	100 to 500 nM	CC1CN(CC(=O)Nc2ccn(CCC(F)Cn3cc(C(=O)NCc4cccc(OC(F)(F)F)c4)nn3)c(=O)c2)CCO1 (stereo not shown) [Example 278, 1-(2-fluoro-4-{4-[2-(2-methylmorpholin-4-yl)acetamido]-2-oxo-1,2-dihydropyridin-1-yl}butyl)-N-{[3-(trifluoromethoxy)phenyl]methyl}-1H-1,2,3-triazole-4-carboxamide]
< 100 nM	> 5000 nM	CS(=O)(=O)N1CCN(CC(=O)Nc2ccn(CCC(F)Cn3cc(C(=O)NCc4cccc(OC(F)(F)F)c4)nn3)c(=O)c2)CC1 (stereo not shown) [Example 279, 1-(2-fluoro-4-{4-[2-(4-methanesulfonylpiperazin-1-yl)acetamido]-2-oxo-1,2-dihydropyridin-1-yl}butyl)-N-{[3-(trifluoromethoxy)phenyl]methyl}-1H-1,2,3-triazole-4-carboxamide]
100 to 500 nM	500 to 5000 nM	O=C(CC1CCNCC1)Nc1ccn(CCC(F)Cn2cc(C(=O)NCc3cccc(OC(F)(F)F)c3)nn2)c(=O)c1 (stereo not shown) [Example 280, 1-(2-fluoro-4-{2-oxo-4-[2-(piperidin-4-yl)acetamido]-1,2-dihydropyridin-1-yl}butyl)-N-{[3-(trifluoromethoxy)phenyl]methyl}-1H-1,2,3-triazole-4-carboxamide]
< 100 nM	< 100 nM	CCOC(=O)N1CCC(CC(=O)Nc2ccn(CCC(F)Cn3cc(C(=O)NCc4cccc(OC(F)(F)F)c4)nn3)c(=O)c2)CC1 (stereo not shown) [Example 281, ethyl 4-{[(1-{3-fluoro-4-[4-({[3-(trifluoromethoxy)phenyl]methyl}carbamoyl)-1H-1,2,3-triazol-1-yl]butyl}-2-oxo-1,2-dihydropyridin-4-yl)carbamoyl]methyl}piperidine-1-carboxylate]
500 to 5000 nM	> 5000 nM	Nc1ccn(CCC(F)Cn2cc(C(=O)NCc3cccc(OC(F)(F)F)c3)nn2)c(=O)c1F (stereo not shown) [Example 282, 1-[4-(4-amino-3-fluoro-2-oxo-1,2-dihydropyridin-1-yl)-2-fluorobutyl]-N-{[3-(trifluoromethoxy)phenyl]methyl}-1H-1,2,3-triazole-4-carboxamide]
< 100 nM	< 100 nM	O=C(CN1CCCC(F)C1)Nc1ccn(CC(F)CCn2cc(C(=O)NCc3cccc(OC(F)(F)F)c3)nn2)c(=O)c1 (stereo not shown) [Example 283, 1-(3-fluoro-4-{4-[2-(3-fluoropiperidin-1-yl)acetamido]-2-oxo-1,2-dihydropyridin-1-yl}butyl)-N-{[3-(trifluoromethoxy)phenyl]methyl}-1H-1,2,3-triazole-4-carboxamide]
